These results are taken from patent US10766869B2, “Triazoles for the treatment of demyelinating dieases” (Vertex Pharmaceuticals Incorporated, priority 2015, dated 2020).

This experiment has as its system primary rat mixed cortical cells. The experiment can be described thus: In vitro myelination assay (MBP positive myelin strands, fold myelin pixels above background). Format: cell-based. The following applies: Rattus norvegicus; for fold induction at 1 µM: 1.0 μM compound; for fold induction at 10 µM: 10.0 μM compound. The essentials: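 Compounds at 1.0 and 10.0 μM were incubated 14 days with dissociated P1 rat cortical cells, which were then fixed and immunostained for MBP. Myelination was scored as fold MBP myelin pixels per well over the no-compound baseline.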

[1] abbreviates: read-out: Fold myelin pixels above background relative to baseline of no added compound.
[2] abbreviates: relative to baseline of no added compound, read-out: Fold myelin pixels above background, 1.0 μM.
[3] abbreviates: relative to baseline of no added compound, read-out: Fold myelin pixels above background, 10.0 μM.
Setting [4] is: relative to baseline of no added compound, read-out: Fold myelin pixels above background.

Where two headings read alike, the source gives them in different places.

Regarding `Cc1cc(Nc2ncn(-c3cc(F)cc(F)c3)n2)cc(N2CCC(OC(C)C)CC2)c1` [Compound 1019, 1-(3,5-difluorophenyl)-N-[3-(4-isopropoxy-1-piperidyl)-5-methyl-phenyl]-1,2,4-triazol-3-amine], under setting [1], the fold induction at 1 µM was 1 to 10 and the fold induction at 10 µM is 10 to 100.

Consider `CCc1cc(Nc2ncn(-c3ccccc3)n2)cc(N2CCN(C3COC3)CC2)c1` [Compound 330, N-[3-ethyl-5-[4-(oxetan-3-yl)piperazin-1-yl]phenyl]-1-phenyl-1,2,4-triazol-3-amine], for which the fold induction at 1 µM under setting [2] was 1000 to 10000. In addition, the fold induction at 10 µM under setting [3] was not above 1.

In the case of `Cc1cc(Nc2ncn(-c3ccccc3Cl)n2)cc(N2CCN(C)CC2)c1` [Compound 428, 1-(2-chlorophenyl)-N-[3-methyl-5-(4-methylpiperazin-1-yl)phenyl]-1,2,4-triazol-3-amine], under setting [4], the fold induction at 1 µM was in the range of 1 to 10 and the fold induction at 10 µM fell in the range of 10 to 100.

For the molecule `COCCN1CCN(c2cc(C)cc(Nc3ncn(-c4cc(F)cc(F)c4)n3)c2)CC1=O` [Compound 1067, 4-[3-[[1-(3,5-difluorophenyl)-1,2,4-triazol-3-yl]amino]-5-methyl-phenyl]-1-(2-methoxyethyl)piperazin-2-one], under setting [1], the fold induction at 1 µM is 1 to 10 and the fold induction at 10 µM was not above 1.

For the molecule `Cc1cc(Nc2ncn(-c3ccc(F)cc3)n2)cc(OC2CCN(C3COC3)CC2)c1` [Compound 201, 1-(4-fluorophenyl)-N-[3-methyl-5-[[1-(oxetan-3-yl)-4-piperidyl]oxy]phenyl]-1,2,4-triazol-3-amine], the fold induction at 1 µM under setting [2] lay in the range of 1000 to 10000. Also, the fold induction at 10 µM under setting [3] is not above 1.

On to `CCC(CO)N1CCN(c2cc(C)cc(Nc3ncn(-c4cc(F)cc(F)c4)n3)c2)CC1` (stereo not drawn) [Compound 904, 2-[4-[3-[[1-(3,5-difluorophenyl)-1,2,4-triazol-3-yl]amino]-5-methyl-phenyl]piperazin-1-yl]butan-1-ol], for which, under setting [1], the fold induction at 1 µM is not above 1 and the fold induction at 10 µM is not above 1.

With `CC(=O)N1CCC(Nc2cc(C)cc(Nc3ncn(-c4ccccc4)n3)c2)CC1` [Compound 402, 1-[4-[3-methyl-5-[(1-phenyl-1,2,4-triazol-3-yl)amino]anilino]-1-piperidyl]ethanone], under setting [4], the fold induction at 1 µM lay in the range of 100 to 1000 and the fold induction at 10 µM lay within 10 to 100.

On to `Cc1cc(Nc2ncn(-c3cnccn3)n2)cc(N2CCCN(C3COC3)CC2)c1` [Compound 818, N-[3-methyl-5-[4-(oxetan-3-yl)-1,4-diazepan-1-yl]phenyl]-1-pyrazin-2-yl-1,2,4-triazol-3-amine], for which, under setting [1], the fold induction at 1 µM lay in the range of 10 to 100 and the fold induction at 10 µM is 100 to 1000.

For the molecule `Cc1cc(Nc2ncn(-c3cc(F)cc(F)c3)n2)cc(OCCn2cccn2)c1` [Compound 832, 1-(3,5-difluorophenyl)-N-[3-methyl-5-(2-pyrazol-1-ylethoxy)phenyl]-1,2,4-triazol-3-amine], under setting [1], the fold induction at 1 µM was in the range of 10 to 100 and the fold induction at 10 µM was 10 to 100.

For `Cc1cc(N2CCN(C3COC3)CC2)cc(Nc2ncn(-c3cc(F)cc(F)c3)n2)c1F` [Compound 587, 1-(3,5-difluorophenyl)-N-[2-fluoro-3-methyl-5-[4-(oxetan-3-yl)piperazin-1-yl]phenyl]-1,2,4-triazol-3-amine], under setting [4], the fold induction at 1 µM fell in the range of 1 to 10 and the fold induction at 10 µM was 10 to 100.

Turning to `Cc1cc(Nc2ncn(-c3ccc(F)c(F)c3)n2)cc(N[C@H]2C[C@@H](N3CCOCC3)C2)c1` (single isomer, unassigned) [Compound 826, N1-[1-(3,4-difluorophenyl)-1,2,4-triazol-3-yl]-5-methyl-N3-(3-morpholinocyclobutyl)benzene-1,3-diamine], under setting [1], the fold induction at 1 µM fell in the range of 10 to 100 and the fold induction at 10 µM is not above 1.

For the molecule `CCc1cc(Nc2ncn(-c3ccc(F)c(F)c3)n2)cc(N2CCN(C3(C)COC3)CC2)c1` [Compound 577, 1-(3,4-difluorophenyl)-N-[3-ethyl-5-[4-(3-methyloxetan-3-yl)piperazin-1-yl]phenyl]-1,2,4-triazol-3-amine], under setting [4], the fold induction at 1 µM lay within 10 to 100 and the fold induction at 10 µM fell in the range of 10 to 100.

In the case of `Cc1cc(Nc2ncn(-c3cc(F)cc(F)c3)n2)cc(N2CCC3(CC2)COC3)c1` [Compound 279, 1-(3,5-difluorophenyl)-N-[3-methyl-5-(2-oxa-7-azaspiro[3.5]nonan-7-yl)phenyl]-1,2,4-triazol-3-amine], under setting [2], the fold induction at 1 µM lay within 100 to 1000. Also, the fold induction at 10 µM under setting [3] was 100 to 1000.

Take `CCc1cc(Nc2ncn(-c3cccc(F)c3F)n2)cc(N2CCN(C3COC3)CC2)c1` [Compound 276, 1-(2,3-difluorophenyl)-N-[3-ethyl-5-[4-(oxetan-3-yl)piperazin-1-yl]phenyl]-1,2,4-triazol-3-amine]: the fold induction at 1 µM under setting [2] is not above 1. Moreover, under setting [3], the fold induction at 10 µM lay in the range of 1 to 10.

Turning to `FC(F)c1cccc(-n2cnc(Nc3cc(C(F)F)cc(N4CC(N5CCOCC5)C4)n3)n2)c1` [Compound 756, 4-(difluoromethyl)-N-[1-[3-(difluoromethyl)phenyl]-1,2,4-triazol-3-yl]-6-(3-morpholinoazetidin-1-yl)pyridin-2-amine], under setting [4], the fold induction at 1 µM lay in the range of 1 to 10 and the fold induction at 10 µM was 10 to 100.

Consider `Cc1cc(Nc2ncn(-c3cc(F)cc(F)c3)n2)cc(NC2CCN(CC(F)F)CC2)c1` [Compound 992, N1-[1-(2,2-difluoroethyl)-4-piperidyl]-N3-[1-(3,5-difluorophenyl)-1,2,4-triazol-3-yl]-5-methyl-benzene-1,3-diamine], for which, under setting [1], the fold induction at 1 µM was 1 to 10 and the fold induction at 10 µM lay within 1 to 10.

In the case of `CC(C)(C)c1cc(Nc2ncn(-c3cc(F)cc(F)c3)n2)cc(N2CCN(C3COC3)CC2)c1` [Compound 17, N-[3-tert-butyl-5-[4-(oxetan-3-yl)piperazin-1-yl]phenyl]-1-(3,5-difluorophenyl)-1,2,4-triazol-3-amine], the fold induction at 1 µM under setting [2] was 100 to 1000. Also, the fold induction at 10 µM under setting [3] is not above 1.

Take `CC(C)c1cc(Nc2ncn(-c3cccc(F)c3)n2)cc(N2CCN(C3COC3)CC2)c1` [Compound 523, 1-(3-fluorophenyl)-N-[3-isopropyl-5-[4-(oxetan-3-yl)piperazin-1-yl]phenyl]-1,2,4-triazol-3-amine]: under setting [4], the fold induction at 1 µM lay within 100 to 1000 and the fold induction at 10 µM is not above 1.

With `Cc1cc(Nc2ncn(-c3ccccc3)n2)cc(N2CCNC(CO)C2)c1` (stereo not drawn) [Compound 59, [4-[3-methyl-5-[(1-phenyl-1,2,4-triazol-3-yl)amino]phenyl]piperazin-2-yl]methanol], under setting [2], the fold induction at 1 µM was in the range of 100 to 1000. Also, the fold induction at 10 µM under setting [3] fell in the range of 100 to 1000.

In the case of `Fc1cc(Nc2ncn(-c3cccc(C(F)F)c3)n2)cc(N2CCN(C3COC3)CC2)c1` [Compound 794, 1-[3-(difluoromethyl)phenyl]-N-[3-fluoro-5-[4-(oxetan-3-yl)piperazin-1-yl]phenyl]-1,2,4-triazol-3-amine], under setting [1], the fold induction at 1 µM lay within 1 to 10 and the fold induction at 10 µM is not above 1.

In the case of `Cc1cc(Nc2ncn(-c3cc(F)cc(F)c3)n2)cc(N[C@H]2C[C@H](N3CCOCC3)C2)c1` (single isomer, unassigned) [Compound 649, N1-[1-(3,5-difluorophenyl)-1,2,4-triazol-3-yl]-5-methyl-N3-(3-morpholinocyclobutyl)benzene-1,3-diamine], under setting [4], the fold induction at 1 µM lay in the range of 10 to 100 and the fold induction at 10 µM is not above 1.

For the molecule `CC(C)(C)c1cc(Nc2ncn(-c3cncnc3)n2)cc(N2CCN(C3COC3)CC2)c1` [Compound 550, N-[3-tert-butyl-5-[4-(oxetan-3-yl)piperazin-1-yl]phenyl]-1-pyrimidin-5-yl-1,2,4-triazol-3-amine], under setting [4], the fold induction at 1 µM was in the range of 10 to 100 and the fold induction at 10 µM lay within 10 to 100.

`Cc1cc(Nc2ncn(-c3cc(F)cc(F)c3)n2)cc(N2CCN(CCO)CC2)c1` [Compound 1036, 2-[4-[3-[[1-(3,5-difluorophenyl)-1,2,4-triazol-3-yl]amino]-5-methyl-phenyl]piperazin-1-yl]ethanol]: under setting [1], the fold induction at 1 µM is not above 1 and the fold induction at 10 µM was not above 1.

On to `Cc1cc(Nc2ncn(-c3cc(F)cc(F)c3)n2)cc(N2CCN([C@H]3CCOC3)CC2)c1` [Compound 530, 1-(3,5-difluorophenyl)-N-[3-methyl-5-[4-[(3S)-tetrahydrofuran-3-yl]piperazin-1-yl]phenyl]-1,2,4-triazol-3-amine], for which, under setting [4], the fold induction at 1 µM was 100 to 1000 and the fold induction at 10 µM lay within 100 to 1000.

Turning to `Cc1cc(Nc2ncn(-c3cccc(C(F)(F)F)c3)n2)cc(N2CCC(N3CCOCC3)CC2)c1` [Compound 854, N-[3-methyl-5-(4-morpholino-1-piperidyl)phenyl]-1-[3-(trifluoromethyl)phenyl]-1,2,4-triazol-3-amine], under setting [1], the fold induction at 1 µM is 100 to 1000 and the fold induction at 10 µM is 10 to 100.

In the case of `Fc1cc(F)cc(-n2cnc(Nc3cc(Br)cc(N4CCOCC4)c3)n2)c1` [Compound 346, N-(3-bromo-5-morpholino-phenyl)-1-(3,5-difluorophenyl)-1,2,4-triazol-3-amine], the fold induction at 1 µM under setting [2] fell in the range of 1000 to 10000. Moreover, the fold induction at 10 µM under setting [3] lay in the range of 1000 to 10000.

For `Cc1cc(Nc2ncn(-c3cc(F)cc(F)c3)n2)cc(N2CCN(C3CC3)CC2)c1` [Compound 482, N-[3-(4-cyclopropylpiperazin-1-yl)-5-methyl-phenyl]-1-(3,5-difluorophenyl)-1,2,4-triazol-3-amine], under setting [4], the fold induction at 1 µM was in the range of 10 to 100 and the fold induction at 10 µM lay within 100 to 1000.
